Source: PubChem BioAssay AID2060611 (Molecular Pharmacology Branch, DTP, NCI, 2025)
pIC50: −log10 of the molar value. “And” between values parts separate entries of the source, which are not always exact repeats. Identical values can stand only once.

System: 628569-122-R-J1-PDC complex spheroid viability
Test: Anticancer human tumor 628569-122-R-J1-PDC patient-derived head and neck squamous carcinoma cell line growth inhibition [CLK]
Settings: for viability, T/C: stronger effect = lower value
Method in brief: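 Multi-cell-type spheroids combined patient-derived tumor cells with HUVEC endothelial cells and human mesenchymal stem cells. Paired agents were dosed in half-log steps down from about clinical Cmax, or from 10 microM where Cmax was unknown.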

[1] = curve of first compound, second compound 0.0316 µM
[2] = curve of first compound, second compound 0.1 µM
[3] = curve of first compound, second compound 0.316 µM
[4] = curve of first compound, second compound 1 µM
[5] = curve of first compound, second compound 3.16 µM
[6] = curve of first compound, second compound 10 µM
[7] = second compound 0.0316 µM, first compound 0.0316 µM
[8] = second compound 0.0316 µM, first compound 0.1 µM
[9] = second compound 0.0316 µM, first compound 0.316 µM
[10] = second compound 0.0316 µM, first compound 1 µM
[11] = second compound 0.0316 µM, first compound 3.16 µM
[12] = second compound 0.0316 µM, first compound 10 µM
[13] = second compound 0.1 µM, first compound 0.0316 µM
[14] = second compound 0.1 µM, first compound 0.1 µM
[15] = second compound 0.1 µM, first compound 0.316 µM
[16] = second compound 0.1 µM, first compound 1 µM
[17] = second compound 0.1 µM, first compound 3.16 µM
[18] = second compound 0.1 µM, first compound 10 µM
[19] = second compound 0.316 µM, first compound 0.0316 µM
[20] = second compound 0.316 µM, first compound 0.1 µM
[21] = second compound 0.316 µM, first compound 0.316 µM
[22] = second compound 0.316 µM, first compound 1 µM
[23] = second compound 0.316 µM, first compound 3.16 µM
[24] = second compound 0.316 µM, first compound 10 µM
[25] = second compound 1 µM, first compound 0.0316 µM
[26] = second compound 1 µM, first compound 0.1 µM
[27] = second compound 1 µM, first compound 0.316 µM
[28] = second compound 1 µM, first compound 1 µM
[29] = second compound 1 µM, first compound 3.16 µM
[30] = second compound 1 µM, first compound 10 µM
[31] = second compound 3.16 µM, first compound 0.0316 µM
[32] = second compound 3.16 µM, first compound 0.1 µM
[33] = second compound 3.16 µM, first compound 0.316 µM
[34] = second compound 3.16 µM, first compound 1 µM
[35] = second compound 3.16 µM, first compound 3.16 µM
[36] = second compound 3.16 µM, first compound 10 µM
[37] = second compound 10 µM, first compound 0.0316 µM
[38] = second compound 10 µM, first compound 0.1 µM
[39] = second compound 10 µM, first compound 0.316 µM
[40] = second compound 10 µM, first compound 1 µM
[41] = second compound 10 µM, first compound 3.16 µM
[42] = second compound 10 µM, first compound 10 µM
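Also: spheroids exposed to agents for seven days before readout.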
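For viability, T/C in this document: 100% = DMSO vehicle control viability.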

COc1ccc([C@@H](O)c2cc(-c3ncnc4cc(N5CCOCC5)ccc34)c(F)cc2Cl)nn1
viability, T/C (compound 0.0316 µM): 79.4% and 79.8% | viability, T/C (compound 0.1 µM): 92.1% and 72.9% | viability, T/C (compound 0.316 µM): 69.5% and 75.5% | viability, T/C (compound 1 µM): 51% and 57.1% | viability, T/C (compound 3.16 µM): 41.2% and 39.4% | viability, T/C (compound 10 µM): 21.8% and 31.3% | pIC50 (curve of compound): 5.87 and 5.79

COc1cccc2c1C(=O)c1c(O)c3c(c(O)c1C2=O)CC(O)(C(=O)CO)CC3OC1CC(N)C(O)C(C)O1 (stereo unspecified) + CN1CCN(c2cc(C(=O)Nc3cc4cc(-c5cnn(C)c5)ccc4cn3)ccn2)CC1
pIC50 [1]: 6.18 | pIC50 [2]: 6.25 | pIC50 [3]: > 7.50 | pIC50 [4]: > 7.50 | pIC50 [5]: > 7.50 | pIC50 [6]: > 7.50 | viability, T/C [7]: 79.8% | viability, T/C [8]: 64.6% | viability, T/C [9]: 114% | viability, T/C [10]: 29.3% | viability, T/C [11]: 9.76% | viability, T/C [12]: 6.19% | viability, T/C [13]: 69.3% | viability, T/C [14]: 85.4% | viability, T/C [15]: 96.8% | viability, T/C [16]: 17.1% | viability, T/C [17]: 11.4% | viability, T/C [18]: 6.38% | viability, T/C [19]: 36.8% | viability, T/C [20]: 58% | viability, T/C [21]: 15% | viability, T/C [22]: 4.91% | viability, T/C [23]: 9.87% | viability, T/C [24]: 7.68% | viability, T/C [25]: 7.46% | viability, T/C [26]: 5.6% | viability, T/C [27]: 6.96% | viability, T/C [28]: 8.8% | viability, T/C [29]: 7.92% | viability, T/C [30]: 4.27% | viability, T/C [31]: 10.7% | viability, T/C [32]: 6.4% | viability, T/C [33]: 4.58% | viability, T/C [34]: 8.38% | viability, T/C [35]: 7.51% | viability, T/C [36]: 3.19% | viability, T/C [37]: 2.99% | viability, T/C [38]: 3.91% | viability, T/C [39]: 1.4% | viability, T/C [40]: 7.4% | viability, T/C [41]: 3.49% | viability, T/C [42]: 0.29%

CC(CO)NC(=O)c1cc(-c2ccc(Cl)cc2)nn(-c2cnn(C)c2)c1=O (stereo unspecified)
viability, T/C (compound 0.0316 µM): 112% and 116% | viability, T/C (compound 0.1 µM): 123% and 158% | viability, T/C (compound 0.316 µM): 177% and 202% | viability, T/C (compound 1 µM): 169% and 217% | viability, T/C (compound 3.16 µM): 175% and 243% | viability, T/C (compound 10 µM): 149% and 181% | pIC50 (curve of compound): < 5.00

Nc1ccn(C2OC(CO)C(O)C2(F)F)c(=O)n1 (stereo unspecified)
viability, T/C (compound 0.0316 µM): 56.4% and 64.8% | viability, T/C (compound 0.1 µM): 48.9% and 39.6% | viability, T/C (compound 0.316 µM): 59% and 51.7% | viability, T/C (compound 1 µM): 42.4% and 32.9% | viability, T/C (compound 3.16 µM): 49.2% and 40.4% | viability, T/C (compound 10 µM): 45.5% and 42% | pIC50 (curve of compound): 6.20 and 7.18

C#Cc1c(F)ccc2cc(O)cc(-c3ncc4c(N5CC6CCC(C5)N6)nc(OCC56CCCN5CC(F)C6)nc4c3F)c12 (stereo unspecified)
viability, T/C (compound 0.0316 µM): 88.1% and 89.3% | viability, T/C (compound 0.1 µM): 88.5% and 80.7% | viability, T/C (compound 0.316 µM): 73.6% and 65.8% | viability, T/C (compound 1 µM): 68.5% and 81% | viability, T/C (compound 3.16 µM): 92% and 112% | viability, T/C (compound 10 µM): 120% and 91.5% | pIC50 (curve of compound): < 5.00

CCN1CCN(Cc2ccc(Nc3ncc(F)c(-c4cc(F)c5nc(C)n(C(C)C)c5c4)n3)nc2)CC1 + CN1CCN(c2cc(C(=O)Nc3cc4cc(-c5cnn(C)c5)ccc4cn3)ccn2)CC1
pIC50 [1]: < 6.00 | pIC50 [2]: < 6.00 | pIC50 [3]: > 8.50 | pIC50 [4]: > 8.50 | pIC50 [5]: > 8.50 | pIC50 [6]: > 8.50 | viability, T/C (second compound 0.0316 µM, first compound 0.00316 µM): 91.4% | viability, T/C (second compound 0.0316 µM, first compound 0.01 µM): 85.2% | viability, T/C [7]: 73.7% | viability, T/C [8]: 79.6% | viability, T/C [9]: 132% | viability, T/C [10]: 181% | viability, T/C (second compound 0.1 µM, first compound 0.00316 µM): 72.8% | viability, T/C (second compound 0.1 µM, first compound 0.01 µM): 55.6% | viability, T/C [13]: 64.6% | viability, T/C [14]: 75.3% | viability, T/C [15]: 96.8% | viability, T/C [16]: 157% | viability, T/C (second compound 0.316 µM, first compound 0.00316 µM): 42.6% | viability, T/C (second compound 0.316 µM, first compound 0.01 µM): 43.2% | viability, T/C [19]: 48.1% | viability, T/C [20]: 53.1% | viability, T/C [21]: 81.8% | viability, T/C [22]: 88.4% | viability, T/C (second compound 1 µM, first compound 0.00316 µM): 10.7% | viability, T/C (second compound 1 µM, first compound 0.01 µM): 5.74% | viability, T/C [25]: 6.1% | viability, T/C [26]: 7.58% | viability, T/C [27]: 12% | viability, T/C [28]: 12.2% | viability, T/C (second compound 3.16 µM, first compound 0.00316 µM): 9.03% | viability, T/C (second compound 3.16 µM, first compound 0.01 µM): 6.91% | viability, T/C [31]: 7.06% | viability, T/C [32]: 8.11% | viability, T/C [33]: 10.9% | viability, T/C [34]: 11.1% | viability, T/C (second compound 10 µM, first compound 0.00316 µM): 9.28% | viability, T/C (second compound 10 µM, first compound 0.01 µM): 1.85% | viability, T/C [37]: 3.61% | viability, T/C [38]: 4.38% | viability, T/C [39]: 8.89% | viability, T/C [40]: 4.27%

CCCS(=O)(=O)Nc1ccc(F)c(C(=O)c2c[nH]c3ncc(-c4ccc(Cl)cc4)cc23)c1F + CN1CCN(c2cc(C(=O)Nc3cc4cc(-c5cnn(C)c5)ccc4cn3)ccn2)CC1
pIC50 [1]: < 5.00 | pIC50 [2]: < 5.00 | pIC50 [3]: > 7.50 | pIC50 [4]: > 7.50 | pIC50 [5]: > 7.50 | pIC50 [6]: > 7.50 | viability, T/C [7]: 121% | viability, T/C [8]: 94.7% | viability, T/C [9]: 87.2% | viability, T/C [10]: 87.9% | viability, T/C [11]: 91.7% | viability, T/C [12]: 104% | viability, T/C [13]: 70.8% | viability, T/C [14]: 72.7% | viability, T/C [15]: 68.9% | viability, T/C [16]: 80.9% | viability, T/C [17]: 86.6% | viability, T/C [18]: 93.5% | viability, T/C [19]: 37.9% | viability, T/C [20]: 36.1% | viability, T/C [21]: 37.9% | viability, T/C [22]: 46.5% | viability, T/C [23]: 46.4% | viability, T/C [24]: 44.5% | viability, T/C [25]: 5.76% | viability, T/C [26]: 9.94% | viability, T/C [27]: 5.5% | viability, T/C [28]: 5.99% | viability, T/C [29]: 5.05% | viability, T/C [30]: 5.13% | viability, T/C [31]: 5.86% | viability, T/C [32]: 6.15% | viability, T/C [33]: 6.62% | viability, T/C [34]: 4.48% | viability, T/C [35]: 5.63% | viability, T/C [36]: 8.05% | viability, T/C [37]: 5.01% | viability, T/C [38]: 2.99% | viability, T/C [39]: 2.11% | viability, T/C [40]: 1.75% | viability, T/C [41]: 1.53% | viability, T/C [42]: 1.67%

CC(=O)O[C@H]1C(=O)[C@@]2(C)[C@H]([C@H](OC(=O)c3ccccc3)[C@]3(O)C[C@H](OC(=O)[C@H](O)[C@@H](NC(=O)c4ccccc4)c4ccccc4)C(C)=C1C3(C)C)[C@]1(OC(C)=O)CO[C@@H]1C[C@@H]2O
viability, T/C (compound 0.0316 µM): 29.1% and 29.6% | viability, T/C (compound 0.1 µM): 30.8% and 26.9% | viability, T/C (compound 0.316 µM): 27.4% and 26.9% | viability, T/C (compound 1 µM): 27.5% and 24.6% | viability, T/C (compound 3.16 µM): 27.2% and 33.9% | viability, T/C (compound 10 µM): 44.5% and 41.1% | pIC50 (curve of compound): > 7.50
